pIC50: −log10 of the molar value. Calls of active or inactive are those of the source. The calls are words filed in the database; no cut-off is given here.
Tests used:
HCT-116 [1] = assay: Induction of apoptosis in human HCT116 cells assessed as live cells at 10 uM after 24 hrs in presence of autophagy inhibitor 3-MA by annexin V-FITC/propidium iodide staining based flow cytometry (reference value: 89.97%); assay type: functional
SMMC-7721 = assay: Growth inhibition of human SMMC7721 cells after 48 hrs by MTT assay; assay type: functional, cell-based; settings: SMMC-7721, 48 h
HCT-116 [2] = assay: Downregulation of cathepsin-B protein expression in human HCT116 cells after 24 hrs by Western blot method; assay type: functional, cell-based
HCT-116 [3] = assay: Induction of apoptosis in human HCT116 cells assessed as live cells at 10 uM after 24 hrs by annexin V-FITC/propidium iodide staining based flow cytometry (reference value: 89.97%); assay type: functional
HCT-116 [4] = assay: Growth inhibition of human HCT116 cells at 2.5 to 7.5 uM after 24 hrs in presence of spermidine by MTT assay; assay type: functional, cell-based

pIC50 (SMMC-7721): 4.87
SMILES: Cl.Cl.Cl.NCCCCNCCCCNCCCCN1C(=O)c2cccc3cccc1c23
Activity (HCT-116 [1]): 56.54%
Activity (HCT-116 [2]): Dose-dependent effect
Activity (HCT-116 [3]): 38.14%
growth inhibition (GI) (HCT-116 [4]): inactive
